Source: patent US11415513B2, “Method for determining the degree of sensitivity of a strain of fungus to an antifungal agent” (UNIVERSITE GRENOBLE ALPES, priority 2015, dated 2022)
Converted amounts (≈) assume the structure as drawn. Where two headings read alike, the source gives them in different places.

Experiments:
[1] = system: strain Tg5 of C. glabrata; experiment: Sensitivity test by HCA microscopy (chitin level, Calcofluor White); type: cell-based, Candida glabrata; conditions: 6.5 h at 35° C., RPMI medium; for decrease in the chitin level in the wall of the cells: vs cells in the absence of antifungal agent, concentration gradient of Table 1
Method: (§1) The strains of Candida were incubated beforehand at 30° C. overnight in a yeast extract medium—peptone dextrose (YPD) (1% bacto peptone, 0.5% yeast extract, 2% glucose, 1.5% agar).
(§2) Yeast colonies were then removed from YPD medium plates and suspended in a 0.9% NaCl saline solution, in which the cell concentration was estimated by optical microscopy using Kova counting slides.
(§3) A dilution was performed to obtain 15 ml of an inoculum at 3×10^6 CFU/ml, in a synthetic complete (SC) medium at pH 7 (2% glucose, 0.5% ammonium sulfate, 0.17% nitrogen-containing yeast base, 0.2% synthetic complete mixture, and 10% HEPES 1.5M pH 7.2) for C. albicans, C. parapsilosis, C. tropicalis and C. krusei, and in a solution of RPMI 1640 pH 7.3 (10% HEPES 1M pH 7.2) for C. glabrata, so as to reduce the formation of septa and clusters.
(§4) 1 ml of inoculum was then added to 2 ml of antifungal solution prepared in an SC or RPMI medium depending on the species of fungus, so as to obtain a final concentration of yeast of 10^6 CFU/ml and the desired concentration of antifungal agent according to table 1.
(§5) After homogenisation, the cultures were placed at 30° C. at 200 rpm, with the exception of cultures of C. glabrata, which were placed at 35° C. at 200 rpm, and incubated for a period of 6.5 h or 24 h.
(§6) After incubation, 100 μl of the culture of fungi obtained above were transferred in triplicate to 96-well plates, and 2.5 μl of Calcofluor White (CFW) were added to each well so as to mark the chitin of the cell walls of the yeasts.
A step of acquiring images by automated fluorescence microscopy (ScanR screening station, Olympus), using a 40× lens and a CFW filter, made it possible to obtain 30 images per well so as to capture enough cells to provide statistically significant data. These images were analysed by software (ScanR analysis software, Olympus). Firstly, the background noise was processed so as to improve the contrast between the fluorescence of the yeasts and background noise. A pixel threshold was then defined. Segmentation of the fluorescent elements present in each of the acquired images was then performed using an algorithm predefined in the software, making it possible to determine the limit of each element on the basis of the fluorescence intensity of said element. […]
Each element then corresponding to a yeast, it was thus possible, on the basis of these elements predefined beforehand, to define the fluorescence intensity for each of the yeasts, this intensity being directly correlated with the chitin content of their wall. […]
(§7) The chitin level in the cell wall of the yeasts was then measured by […] analysis (HCA) microscopy, as described in paragraph II of the Examples section, in triplicate for each condition of concentration of fluconazole and without fluconazole. […]

[2] = system: strain Tg5 of C. glabrata; experiment: Etest method (MIC); type: cell-based, Candida glabrata; conditions: for MIC: Nakaseomyces glabratus, read-out: MIC (Etest method)
Method: The Etest® method is a commercial test for determining the sensitivity of a strain, most frequently used routinely in clinical mycology laboratories.
The Etest® tests were performed according to the manufacturer's instructions. After distributing a standardised Mac Farland 0.5 inoculum (equivalent of […]) over plates of RPMI medium, said plates were incubated for 24 h at 35° C., with the exception of C. glabrata in which case the incubation was extended to 48 h so as to be able to determine the minimum inhibitory concentration (MIC).
The results of the MICs obtained were interpreted in accordance with the tables of the CLSI (Clinical and Laboratory Standards Institute) and/or of EUCAST (European Committee on Antimicrobial Susceptibility Testing) (Arendrup M C, Cuenca-Estrella M, Lass-Flörl C, Hope W W (2014) Breakpoints for antifungal agents: an update from EUCAST focussing on echinocandins against Candida spp and triazoles against Aspergillus spp. Drug Resist Updat 16(6):81-95. doi:10.1016/j.drup.2014.01.001) (cf. Table 2 taken from Maubon D, Garnaud C, Calandra T, et al. (2014) Resistance of Candida spp. to antifungal drugs in the ICU: where are we now? Intensive Care Med. doi: 10.1007/s00134-014-3404-7) which list the clinical thresholds (CBPs) for the most common species of yeast of the genus Candida as a function of different antifungal agents, or according to the table of epidemiological thresholds (ECVs).

[3] = system: strain ATCC®6258 of C. krusei; experiment: Sensitivity test by HCA microscopy (chitin level, Calcofluor White; cell count); type: cell-based, Candida krusei
Method: as §1, §2, §3, §4, §5, §6
A step of acquiring images by automated fluorescence microscopy (ScanR screening station, Olympus), using a 40× lens and a CFW filter, made it possible to obtain 30 images per well so as to capture enough cells to provide statistically significant data. These images were analysed by software (ScanR analysis software, Olympus). Firstly, the background noise was processed so as to improve the contrast between the fluorescence of the yeasts and background noise. A pixel threshold was then defined. Segmentation of the fluorescent elements present in each of the acquired images was then performed using an algorithm predefined in the software, making it possible to determine the limit of each element on the basis of the fluorescence intensity of said element. A size parameter was then applied to select the yeasts and eliminate the aggregates and the fluorescent debris.
Each element then corresponding to a yeast, it was thus possible, on the basis of these elements predefined beforehand, to define the fluorescence intensity for each of the yeasts, this intensity being directly correlated with the chitin content of their wall.
On the basis of said defined elements, it was also possible to automatically count the yeasts,
The strain ATCC®6258 of C. krusei was cultivated as described in paragraph I of the Examples section so as to obtain an inoculum at 3×10^6 CFU/ml in 15 ml of SC medium.
2 ml of fluconazole solution prepared in the SC medium were then added to 1 ml of this inoculum so as to obtain a final concentration of yeast of 10^6 CFU/ml and of 128 μg/ml in fluconazole. […]
as §7

[4] = RPMI medium plates, 35° C., incubation extended to 48 h for C. glabrata

| SMILES | phenotype of the strain with respect to the antifungal agent (HCA) [1] | decrease in the chitin level in the wall of the cells [1] | MIC [2, 4] [µg/mL] | phenotype by Etest MIC, interpretation by the EUCAST and/or CLSI tables [2, 4] | phenotype of the strain with respect to the antifungal agent (HCA) ([3]; 6.5 h at 30° C., SC medium) | increase in the chitin level in the wall of the cells ([3]; vs cells in the absence of antifungal agent, 6.5 h at 30° C., SC medium, concentration gradient of Table 1) | MIC ([2]; 48 h) [µg/mL] | phenotype of the strain with respect to the antifungal agent (HCA) ([3]; 24 h at 30° C., RPMI medium) | decrease of the number of cells ([3]; vs cells in the absence of antifungal agent, 24 h at 30° C., RPMI medium) | increase of the chitin level in the wall of the cells ([3]; vs cells in the absence of antifungal agent, 24 h at 30° C., RPMI medium, concentration gradient of Table 1) |
| --- | --- | --- | --- | --- | --- | --- | --- | --- | --- | --- |
| OC(Cn1cncn1)(Cn1cncn1)c1ccc(F)cc1F [fluconazole] | resistant (an increase in the chitin level having a value less than 10% or a decrease in the chitin level of less than 20% or an unchanged chitin level) | less than 20% | > 256 | resistant | resistant (an increase in the chitin level having a value less than 10% or a decrease in the chitin level of less than 20% or an unchanged chitin level) | less than 10% | – | – | – | – |
| C[C@@H](c1ncncc1F)[C@](O)(Cn1cncn1)c1ccc(F)cc1F [voriconazole] | resistant (an increase in the chitin level having a value less than 10% or a decrease in the chitin level of less than 20% or an unchanged chitin level) | less than 20% | – | resistant | – | – | 8 (≈ 22.9 µM) | intermediate (an increase in the chitin level having a value of from 10% to a value less than 20%) | less than 0.3 log | greater than or equal to 20% |
